Reference: patent US12559504B2, “Benzotriazole derivative” (UBE CORPORATION, priority 2019, dated 2026)

Legend:
[1] = target: T1, GST fusion human Keap1 (amino acid residue: 325-624) protein (Homo sapiens, UniProt Q14145); experiment: Keap1-Nrf2 binding inhibition test (fluorescence polarization); settings: compound concentration of 100 nM; read-out: inhibition rate
T1 construct: GST fusion human Keap1 (amino acid residue: 325-624) protein; purchased Protein tech Ag0779
Procedure, shortened: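 Fluorescence polarization with FITC-labelled Nrf2 peptide (FITC-Ahx-LDEETGEFL-NH2) and GST-human Keap1 (325-624) in 20 mM Tris pH 7.5, 150 mM NaCl, 0.05% Tween 20, 5 mM DTT, BSA; 30 min at room temperature, ex 482/em 530 nm. Percent inhibition at 100 nM compound, Keap1-free wells = 100%.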

[2] = tested on: NQO1; experiment: NQO1 expression induction test in mouse kidney (single administration); format: in vivo; settings: Mus musculus, po, 6 h, BALB/c mouse kidney, 6 hours after administration, ratio to control group
Procedure, shortened: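 Female BALB/c mice received a single oral dose of compound in 0.5% methylcellulose, with untreated mice as controls. Six hours later, left-kidney NQO1 mRNA was measured by SYBR real-time RT-PCR normalised to GAPDH. Induction was expressed as the ratio of mean treated to mean control expression.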

[3] = tested on: NQO1; experiment: NQO1 enzyme induction test (in vitro) in Hepa1c1c7 cells; format: cell-based; settings: Mus musculus, Hepa-1c1c7, 48 h, concentration to elevate the NQO1 activity by 1.5 times, about 48 hours, read-out: EC150
Procedure, shortened: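 Mouse Hepa1c1c7 cells treated about 48 h with compound (0.1% DMSO final), then lysed. NQO1 activity read as MTT reduction at 540 nm with menadione substrate, 5 min at room temperature, and corrected for cell number by CellTiter-Glo. EC150 is the concentration raising NQO1 activity 1.5-fold.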

[4] = Metabolism test using human liver microsome fractions; format: in vitro ADME; settings: human liver microsomes, test compound 10 μmol/L, NADPH and UDP-glucuronic acid, 37° C.
Procedure, shortened: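 Human or monkey liver microsomes (1 mg protein) with NADPH-regenerating system plus UDP-glucuronic acid/UGT mix, 37 °C; compound at 10 μmol/L final. Samples at 0–30 min quenched in acetonitrile, UV-HPLC; elimination rate (pmol/min/mg-P) from linear slope of residual amount over time.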

T1 sequence (Q14145 325-624): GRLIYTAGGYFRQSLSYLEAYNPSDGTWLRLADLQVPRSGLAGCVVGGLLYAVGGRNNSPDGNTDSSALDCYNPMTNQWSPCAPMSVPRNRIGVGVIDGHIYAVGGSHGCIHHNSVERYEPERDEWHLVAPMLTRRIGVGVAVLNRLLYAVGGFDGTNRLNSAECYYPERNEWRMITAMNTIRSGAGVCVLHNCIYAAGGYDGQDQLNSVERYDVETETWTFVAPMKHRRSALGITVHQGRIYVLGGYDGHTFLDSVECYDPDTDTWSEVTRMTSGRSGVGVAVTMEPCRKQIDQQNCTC

Compound	inhibition at 0.1 µM [1] [%]	fold induction at 20 mg/kg [2]	EC (1.5-fold NQO1 activity) [3] [µM]	Human metabolic rate [4]	fold induction at 10 mg/kg ([2]; Dose 10 mg/kg)	fold induction at 30 mg/kg [2]
CC[C@@H]1CN(Cc2cc(C(c3ccc4c(nnn4C)c3C)C(C)(C)C(=O)O)ccc2C)Cc2cc3c(cnn3C)cc2O1 (stereo partly drawn) [Example 65-(b), 3-(1,4-dimethyl-1H-benzo[d][1,2,3]triazol-5-yl)-3-(3-(((R)-6-ethyl-1-methyl-1,6,7,9-tetrahydro-8H-[1,4]oxazepino[7,6-f]indazol-8-yl)methyl)-4-methylphenyl)-2,2-dimethylpropanoic Acid]	≥ 50	3 to 6	0.0005 to 0.005	D (200≤metabolic rate<250 pmol/min/me protein)		
CC[C@@H]1CN(Cc2cc(C(c3ccc4c(nnn4C)c3C)C(C)(C)C(=O)O)ccc2C)Cc2cc3cnccc3cc2O1 (stereo partly drawn) [Example 53, 3-(1,4-dimethyl-1H-benzo[d][1,2,3]triazol-5-yl)-3-(3-(((R)-2-ethyl-2,3-dihydro-[1,4]oxazepino[7,6-g]isoquinolin-4 (5H)-yl)methyl)-4-methylphenyl)-2,2-dimethylpropanoic Acid]	≥ 50		0.0005 to 0.005	C (150≤metabolic rate<200 pmol/min/mg protein)		> 6
CC[C@@H]1CN(Cc2cc(C(c3ccc4c(nnn4C)c3C)C(C)(C)C(=O)O)ccc2C)Cc2cc3cccc(C)c3nc2O1 (stereo partly drawn) [Example 13-(b), 3-(1,4-dimethyl-1H-benzo[d][1,2,3]triazol-5-yl)-3-(3-(((R)-2-ethyl-10-methyl-2,3-dihydro-[1,4]oxazepino[7,6-b]quinolin-4 (5H)-yl)methyl)-4-methylphenyl)-2,2-dimethylpropanoic Acid]	≥ 50		0.0005 to 0.005	E (metabolic rate≥250 pmol/min/mg protein)		3 to 6
CC[C@@H]1CN(Cc2cc(C(c3ccc4c(nnn4C)c3C)C(C)(C)C(=O)O)ccc2C)Cc2ccc3c(c2O1)CCCC3 (stereo partly drawn) [Example 7-(b), 3-(1,4-dimethyl-1H-benzo[d][1,2,3]triazol-5-yl)-3-(3-(((R)-2-ethyl-2,3,8,9,10,11-hexahydronaphtho[2,1-f][1,4]oxazepin-4(5H)-yl)methyl)-4-methylphenyl)-2,2-dimethylpropanoic Acid]	≥ 50		0.005 to 0.05	B (100≤metabolic rate<150 pmol/min/mg protein)		3 to 6
CC[C@@H]1CN(Cc2cc(C(c3ccc4c(nnn4C)c3C)C(C)(C)C(=O)O)ccc2C)Cc2c(ccc3cn(C)nc23)O1 (stereo partly drawn) [Example 22-(b), 3-(1,4-dimethyl-1H-benzo[d][1,2, 3)triazol-5-yl)-3-(3-(((R)-7-ethyl-2-methyl-2,7,8,10-tetrahydro-9H-(1,4]oxazepino[7,6-g]indazol-9-yl)methyl)-4-methylphenyl)-2,2-dimethylpropanoic Acid]	≥ 50		0.0005 to 0.005	B (100≤metabolic rate<150 pmol/min/mg protein)		> 6

Now from value to compound, other results behind:

inhibition at 0.1 µM [1] [%]	Compound	fold induction at 20 mg/kg [2]	EC (1.5-fold NQO1 activity) [3] [µM]	Human metabolic rate [4]	fold induction at 10 mg/kg ([2]; Dose 10 mg/kg)	fold induction at 30 mg/kg [2]
≥ 50	CC[C@@H]1CN(Cc2cc(C(c3ccc4c(nnn4C)c3C)C(C)(C)C(=O)O)ccc2C)Cc2ccccc2O1 (single isomer, unassigned) [Example C1, reference compound]		0.005 to 0.05	C (150≤metabolic rate<200 pmol/min/mg protein)	≤ 3	
≥ 50	CC[C@@H]1CN(Cc2cc(C(c3ccc4c(nnn4C)c3C)C(C)(C)C(=O)O)ccc2C)Cc2cc3nccc(OC)c3cc2O1 (stereo partly drawn) [Example 70-(b), 3-(1,4-dimethyl-1H-benzo[d][1,2,3]triazol-5-yl)-3-(3-(((R)-2-ethyl-10-methoxy-2,3-dihydro-[1,4]oxazepino[7,6-g]quinolin-4(5H)-yl)methyl)-4-methylphenyl)-2,2-dimethylpropanoic Acid]	> 6	0.0005 to 0.005	E (metabolic rate≥250 pmol/min/mg protein)		
